Results: the supplement of paper PMC10307832

Columns and labels:
Test in all cases: relative viability (nuclei count vs DMSO), 5 days (fraction); higher = more cells survive
NCI-H1437 = tested on: NCI-H1437
Method in brief: (§1)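 Lung cancer cell lines were seeded in 1536-well plates and dosed by pin tool the next day, with either a single drug or a fixed anchor-drug dose combined with five library-drug doses (not always all listed) spaced in √10 steps. Five days later, one step fixed the cells and stained their nuclei (final 0.05% Triton X-100, 1% formaldehyde, 1 ug/ml Hoechst), and nuclei were counted on 4× images. Relative viability is the nuclei count in treated wells divided by the count in vehicle wells, and each value is the median of duplicate plates.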

HARA = tested on: HARA
Method in brief: as §1

NCI-H1792 = tested on: NCI-H1792
Method in brief: as §1

NCI-H522 = tested on: NCI-H522
Method in brief: as §1

COR-L23 = tested on: COR-L23
Method in brief: as §1

NCI-H520 = tested on: NCI-H520
Method in brief: as §1

NCI-H441 = tested on: NCI-H441
Method in brief: as §1

LCLC-103H = tested on: LCLC-103H
Method in brief: as §1

HCC-15 = tested on: HCC-15
Method in brief: as §1

NCI-H1666 = tested on: NCI-H1666
Method in brief: as §1

NCI-H650 = tested on: NCI-H650
Method in brief: as §1

LK-2 = tested on: LK-2
Method in brief: as §1

HCC-827 = tested on: HCC-827
Method in brief: as §1

SW 900 = tested on: SW 900
Method in brief: as §1

NCI-H1975 = tested on: NCI-H1975
Method in brief: as §1

EKVX = tested on: EKVX
Method in brief: as §1

NCI-H596 = tested on: NCI-H596
Method in brief: as §1

HCC-44 = tested on: HCC-44
Method in brief: as §1

A-427 = tested on: A-427
Method in brief: as §1

NCI-H838 = tested on: NCI-H838
Method in brief: as §1

COR-L 105 = tested on: COR-L 105
Method in brief: as §1

NCI-H23 = tested on: NCI-H23
Method in brief: as §1

201T = tested on: 201T
Method in brief: as §1

SK-MES-1 = tested on: SK-MES-1
Method in brief: as §1

## CC(C)Oc1cc(Nc2nc(N[C@@H](C)c3ccc(F)cn3)ncc2Cl)n[nH]1 [AZ23] + N=C(N)NC(=N)NCCc1ccccc1 [Phenformin] (partner 250 µM)
NCI-H1437; first compound 0.01 µM
  relative viability: 0.298
NCI-H1437; first compound 0.03162 µM
  relative viability: 0.336
NCI-H1437; first compound 0.3162 µM
  relative viability: 0.345
HARA; first compound 0.03162 µM
  relative viability: 0.589
HARA; first compound 0.3162 µM
  relative viability: 0.471
NCI-H1792; first compound 0.03162 µM
  relative viability: 0.397
NCI-H1792; first compound 0.3162 µM
  relative viability: 0.239
NCI-H522; first compound 0.01 µM
  relative viability: 0.711
NCI-H522; first compound 0.03162 µM
  relative viability: 0.662
NCI-H522; first compound 0.3162 µM
  relative viability: 0.656
COR-L23; first compound 0.01 µM
  relative viability: 0.367
COR-L23; first compound 0.03162 µM
  relative viability: 0.512
COR-L23; first compound 0.3162 µM
  relative viability: 0.462
NCI-H520; first compound 0.01 µM
  relative viability: 0.508
NCI-H520; first compound 0.03162 µM
  relative viability: 0.643
NCI-H520; first compound 0.3162 µM
  relative viability: 0.23
NCI-H441; first compound 0.01 µM
  relative viability: 0.865
NCI-H441; first compound 0.03162 µM
  relative viability: 0.841
NCI-H441; first compound 0.3162 µM
  relative viability: 0.906
LCLC-103H; first compound 0.01 µM
  relative viability: 0.339
LCLC-103H; first compound 0.03162 µM
  relative viability: 0.352
LCLC-103H; first compound 0.3162 µM
  relative viability: 0.333
HCC-15; first compound 0.01 µM
  relative viability: 0.555
HCC-15; first compound 0.03162 µM
  relative viability: 0.537
HCC-15; first compound 0.3162 µM
  relative viability: 0.494
NCI-H1666; first compound 0.01 µM
  relative viability: 0.566
NCI-H1666; first compound 0.03162 µM
  relative viability: 0.802
NCI-H1666; first compound 0.3162 µM
  relative viability: 0.538
NCI-H650; first compound 0.01 µM
  relative viability: 0.432
NCI-H650; first compound 0.03162 µM
  relative viability: 0.461
NCI-H650; first compound 0.3162 µM
  relative viability: 0.466
LK-2; first compound 0.01 µM
  relative viability: 0.303
LK-2; first compound 0.03162 µM
  relative viability: 0.401
LK-2; first compound 0.3162 µM
  relative viability: 0.311
HCC-827; first compound 0.01 µM
  relative viability: 0.436
HCC-827; first compound 0.03162 µM
  relative viability: 0.42
HCC-827; first compound 0.3162 µM
  relative viability: 0.404
SW 900; first compound 0.01 µM
  relative viability: 0.734
SW 900; first compound 0.03162 µM
  relative viability: 0.879
SW 900; first compound 0.3162 µM
  relative viability: 0.799
NCI-H1975; first compound 0.01 µM
  relative viability: 0.43
NCI-H1975; first compound 0.03162 µM
  relative viability: 0.416
NCI-H1975; first compound 0.3162 µM
  relative viability: 0.397
EKVX; first compound 0.01 µM
  relative viability: 0.224
EKVX; first compound 0.03162 µM
  relative viability: 0.237
EKVX; first compound 0.3162 µM
  relative viability: 0.231
NCI-H596; first compound 0.01 µM
  relative viability: 0.787
NCI-H596; first compound 0.03162 µM
  relative viability: 0.87
NCI-H596; first compound 0.3162 µM
  relative viability: 0.739
HCC-44; first compound 0.01 µM
  relative viability: 0.231
HCC-44; first compound 0.03162 µM
  relative viability: 0.4
HCC-44; first compound 0.3162 µM
  relative viability: 0.245
A-427; first compound 0.01 µM
  relative viability: 0.301
A-427; first compound 0.03162 µM
  relative viability: 0.365
A-427; first compound 0.3162 µM
  relative viability: 0.281
NCI-H838; first compound 0.01 µM
  relative viability: 0.546
NCI-H838; first compound 0.03162 µM
  relative viability: 0.586
NCI-H838; first compound 0.3162 µM
  relative viability: 0.597
COR-L 105; first compound 0.01 µM
  relative viability: 0.456
COR-L 105; first compound 0.03162 µM
  relative viability: 0.577
COR-L 105; first compound 0.3162 µM
  relative viability: 0.508
NCI-H23; first compound 0.03162 µM
  relative viability: 0.89
NCI-H23; first compound 0.3162 µM
  relative viability: 0.783
201T; first compound 0.01 µM
  relative viability: 0.539
201T; first compound 0.03162 µM
  relative viability: 0.438
201T; first compound 0.3162 µM
  relative viability: 0.486
SK-MES-1; first compound 0.03162 µM
  relative viability: 0.743
SK-MES-1; first compound 0.3162 µM
  relative viability: 0.743
